One assay relates to αvβ6. Particulars: cited from earlier work. From the text: The two molecules 6 and 7 were conjugated to the nonapeptide cyclo-(FRGDLAFp(NMe)K)[29] (p = D-Pro; (NMe)K = N-methyl-Lys) under mild conditions, without the assistance of any activation agent, producing the two conjugates (11 and 12, Fig. 3). Noteworthy, the arginine-glycine-aspartate (RGD) sequence in cyclic peptides is known to selectively bind αv integrins. […] Moreover, the presence of the two non-proteinogenic amino acids, na ...

Assay [1] addresses T1, integrin αvβ6 (pancreatic cancer BxPC-3 cells) (Homo sapiens, UniProt P06756+P18564).
T1 construct: endogenous in cells; host or cells: BxPC-3 pancreatic cancer cells
As to the kind of experiment: Competitive binding assay (gamma counting, unlabelled THP-peptide vs [68Ga]Ga-labelled peptide) on BxPC-3 cells. It is filed as cell-based. Particulars: for Span (best-fit value): Std. Error 0.01175 (11), 0.04901 (12), 95% CI 0.04041 to 0.08849 (11), 0.1021 to 0.3002 (12); for log IC50: non-linear regression, GraphPad Prism 9, inhibitor 0.1-5000 nM, 1 h, 37 °C, n = 4, value ± as printed in method; for LogIC50 (best-fit value): Std. Error 0.1982 (11), 0.2904 (12), 95% CI -7.123 to -6.312 (11), -7.167 to -5.993 (12); for HillSlope (best-fit value): Std. Error 0.5820 (11), 0.3994 (12), 95% CI -2.429 to -0.04897 (11), -1.659 to -0.04442 (12). On the procedure: Binding of [^68Ga]Ga-Integrin αvβ6-peptide-THP (11 and 12) to αvβ6 integrin was determined in the presence of increasing concentrations of unlabelled THP-peptide conjugate (Fig. 4).
BxPC-3 were plated in 12-well plates at a density of 5 × 10^5 cells per well in 1 mL of complete culture medium, cultured overnight at 37 °C and 5% CO2. Radiolabelling with ^68Ga was done as described above, and a solution containing 15 MBq in 1.0 mL was prepared by dilution with distilled H2O. Eleven inhibitor (unlabelled peptide) concentrations were tested to estimate the IC50 value at 0.1, 0.5, 1, 5, 10, 50, 100, 250, 500, 1000, and 5000 nM. Four wells were used for each concentration (n = 4), prepared in 500 μL of complete media. Following the addition of the inhibitor, 20 μL of the radiolabelled peptide solution was added to each well, corresponding to 300 kbq per well (33 nM of the labelled peptide per well). The cells were then incubated for an hour at the same above-mentioned conditions. Following incubation, media were removed from the wells, and the cells were washed twice with cold PBS (500 μL per washing). For each well, the media and the washings were collected together. After the second wash, 500 μL of 1 M NaOH solution was added to each well to lyse the cells, and cell lysates were retrieved 10 minutes later ([…]). A final wash with PBS (500 μL per well) was undertaken and collected in the same tube as the cell lysate. All tubes (containing either medium and washings or lysate and washings) were gamma-counted using a Wallac 1282 Compugamma Universal Gamma Counter. The resulting values were analyzed using Graphpad Prism 9 software, and a non-linear regression curve was generated, from which the IC50 values (log IC50: −6.72 ± 0.20 for 11 and −6.58 ± 0.29 for 12) were obtained.

Where [2] appears, read: binding curve, nonlinear regression.

T1 sequence (P06756 31-889 limits assumed): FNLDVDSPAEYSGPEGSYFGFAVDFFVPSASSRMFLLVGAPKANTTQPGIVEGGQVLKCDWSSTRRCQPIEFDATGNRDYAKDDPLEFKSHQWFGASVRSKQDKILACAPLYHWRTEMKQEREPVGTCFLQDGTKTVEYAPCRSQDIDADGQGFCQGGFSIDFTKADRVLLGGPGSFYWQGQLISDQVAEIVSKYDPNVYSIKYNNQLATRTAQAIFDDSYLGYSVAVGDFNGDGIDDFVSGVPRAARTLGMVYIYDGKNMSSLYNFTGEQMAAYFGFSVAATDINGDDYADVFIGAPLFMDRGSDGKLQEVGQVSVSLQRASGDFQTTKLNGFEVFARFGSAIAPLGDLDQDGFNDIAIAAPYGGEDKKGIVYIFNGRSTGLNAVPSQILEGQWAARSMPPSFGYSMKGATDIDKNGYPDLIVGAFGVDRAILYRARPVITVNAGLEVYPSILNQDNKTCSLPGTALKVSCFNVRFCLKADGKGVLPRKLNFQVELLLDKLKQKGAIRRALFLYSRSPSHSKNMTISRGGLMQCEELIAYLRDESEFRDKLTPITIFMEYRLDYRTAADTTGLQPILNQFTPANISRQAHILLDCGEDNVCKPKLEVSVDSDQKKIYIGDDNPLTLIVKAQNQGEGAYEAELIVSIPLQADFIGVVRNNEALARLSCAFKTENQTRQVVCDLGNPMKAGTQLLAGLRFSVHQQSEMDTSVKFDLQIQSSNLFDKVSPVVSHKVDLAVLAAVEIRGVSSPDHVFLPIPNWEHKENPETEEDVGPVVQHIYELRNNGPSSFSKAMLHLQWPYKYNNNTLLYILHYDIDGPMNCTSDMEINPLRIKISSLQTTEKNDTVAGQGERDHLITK
T1 sequence (P06756 891-1048 partner limits assumed): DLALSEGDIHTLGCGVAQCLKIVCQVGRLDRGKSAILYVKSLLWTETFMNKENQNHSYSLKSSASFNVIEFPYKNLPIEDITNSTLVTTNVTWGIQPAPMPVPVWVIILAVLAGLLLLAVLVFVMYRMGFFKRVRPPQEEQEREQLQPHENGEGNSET
T1 sequence (P18564 22-788): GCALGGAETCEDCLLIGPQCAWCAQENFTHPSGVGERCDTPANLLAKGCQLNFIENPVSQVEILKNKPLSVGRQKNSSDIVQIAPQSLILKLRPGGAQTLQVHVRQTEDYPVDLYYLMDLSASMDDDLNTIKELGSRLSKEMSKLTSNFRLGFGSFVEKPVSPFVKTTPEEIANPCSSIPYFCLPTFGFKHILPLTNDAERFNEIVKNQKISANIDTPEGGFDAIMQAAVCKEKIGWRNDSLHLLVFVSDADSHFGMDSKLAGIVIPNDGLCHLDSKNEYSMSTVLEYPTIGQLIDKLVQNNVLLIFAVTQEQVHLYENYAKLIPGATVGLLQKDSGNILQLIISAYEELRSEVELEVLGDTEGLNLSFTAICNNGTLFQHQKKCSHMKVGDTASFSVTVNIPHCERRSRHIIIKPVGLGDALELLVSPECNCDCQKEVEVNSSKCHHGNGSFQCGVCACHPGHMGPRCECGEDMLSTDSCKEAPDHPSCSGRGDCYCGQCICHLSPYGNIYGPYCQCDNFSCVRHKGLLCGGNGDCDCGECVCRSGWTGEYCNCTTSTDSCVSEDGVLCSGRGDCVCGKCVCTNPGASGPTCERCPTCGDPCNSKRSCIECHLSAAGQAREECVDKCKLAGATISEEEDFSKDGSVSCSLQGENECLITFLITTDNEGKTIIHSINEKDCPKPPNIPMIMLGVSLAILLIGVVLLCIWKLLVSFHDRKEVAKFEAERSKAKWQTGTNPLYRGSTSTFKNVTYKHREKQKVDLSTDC

As a reminder, the IC50 is the concentration needed to halve the response being measured. Consider “cyclo-(FRGDLAFp(NMe)K) (head to tail) [compound 10]”, for which the “potency and selectivity for αvβ6 (in words)” value in the assay with αvβ6 is “potent and selective binder for αvβ6”. Besides, the IC50 with αvβ6 (αvβ6) was 0.26 nM.
Regarding “cyclo-(FRGDLAFp(NMe)K)-THPs (head to tail) [compound 11, cyclo-(FRGDLAFp(NMe)K) conjugated to THP-glutaric (6)]”, the “Span (best-fit value)” value in assay [1] (setting [2]) came to 0.06445. Also, in assay [1], the “log IC50” value was −6.72 ± 0.20. For the same substance, in assay [1] (nonlinear regression), the “LogIC50 (best-fit value)” value is recorded as -6.717 and the “HillSlope (best-fit value)” value is listed as -1.239.
For “cyclo-(FRGDLAFp(NMe)K)-THPs (head to tail) [compound 12, cyclo-(FRGDLAFp(NMe)K) conjugated to THP-adipic (7)]”, the “Top (best-fit value)” value in assay [1] (binding curve, nonlinear regression, Std. Error 0.004453 (11), 0.01334 (12), 95% CI 0.1175 to 0.1358 (11), 0.2906 to 0.3446 (12)) came to 0.3176. In addition, the “Bottom (best-fit value)” value in assay [1] (binding curve, nonlinear regression, Std. Error 0.01017 (11), 0.04302 (12), 95% CI 0.04141 to 0.08300 (11), 0.02951 to 0.2034 (12)) is on record as 0.1165. Moreover, in assay [1] (setting [2]), the “Span (best-fit value)” value stood at 0.2012. Moreover, the “log IC50” value in assay [1] is listed as −6.58 ± 0.29. Besides, in assay [1] (nonlinear regression), the “LogIC50 (best-fit value)” value is recorded as -6.580 and the “HillSlope (best-fit value)” value is recorded as -0.8516.

The values above are taken from PMC9425781, “Targeting integrin αvβ6 with gallium-68 tris (hydroxypyridinone) based PET probes” (Dalton Transactions (Cambridge, England : 2003), 2022).
